Laboratory results reported in patent US8895474B2, “Herbicidally active cyclopentanediones and derivatives thereof, and their use in controlling weeds” (Syngenta Limited, priority 2009, dated 2014).

What was measured:
Assay type in all cases: in vivo
Settings in all cases: 312 h, rate 250 g/ha, evaluated after 13 days, 100=total damage to plant, 0=no damage to plant
[1] = tested on: Alopecurus myosuroides (ALOMY); test: Pre-emergence herbicidal activity, glasshouse pot test
How it was run: (§1)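 Seeds sown in standard soil and sprayed one day after sowing with compound in acetone/water (50:50) containing 0.5% Tween 20. Glasshouse at 24/16 °C day/night, 14 h light, 65% humidity. Damage scored after 13 days on a 0–100 scale, where 100 means total damage.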

Avena fatua (AVEFA) [2] = test: as above
How it was run: as §1

[3] = tested on: Echinochloa crus-galli (ECHCG); test: as above
How it was run: as §1

Lolium perenne (LOLPE) [4] = test: as above
How it was run: as §1

[5] = tested on: Alopecurus myosuroides (ALOMY); test: Post-emergence herbicidal activity, glasshouse pot test
How it was run: (§2)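 Visual damage score 0–100 (100 = plant killed) taken 13 d after treatment. Pots sown in standard soil, sprayed post-emergence at day 8; spray solution: acetone/water 50:50 + 0.5% Tween 20. Glasshouse 24/16 °C, 14 h photoperiod, 65% RH.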

Avena fatua (AVEFA) [6] = test: as above
How it was run: as §2

[7] = tested on: Echinochloa crus-galli (ECHCG); test: as above
How it was run: as §2

Lolium perenne (LOLPE) [8] = test: as above
How it was run: as §2

SMILES	pest or weed control at 250 g/ha [1] [%]	pest or weed control at 250 g/ha (Avena fatua (AVEFA) [2]) [%]	pest or weed control at 250 g/ha [3] [%]	pest or weed control at 250 g/ha (Lolium perenne (LOLPE) [4]) [%]	pest or weed control at 250 g/ha [5] [%]	pest or weed control at 250 g/ha (Avena fatua (AVEFA) [6]) [%]	pest or weed control at 250 g/ha [7] [%]	pest or weed control at 250 g/ha (Lolium perenne (LOLPE) [8]) [%]
CCc1ccc(Oc2ncc(Br)cn2)cc1C1=C(O)CCC1=O [Compound A-72]	40	30	100	70	50	30	100	30
CCc1ccc(Oc2nc3ccc(OC)cc3s2)cc1C1=C(O)CCC1=O [Compound A-75]	30	20	100	80	10	0	40	20
CCc1ccc(Oc2ccc(C(F)(F)F)cc2[N+](=O)[O-])cc1C1=C(O)CCC1=O [Compound A-76]	20	0	100	50	50	80	80	30
CCc1ccc(Oc2nc3c(Cl)cc(Cl)cc3s2)cc1C1=C(O)CCC1=O [Compound A-77]	20	0	90	20	20	0	80	30
CCc1ccc(Oc2ncc(Cl)cc2C(F)(F)F)cc1C1=C(O)CCC1=O [Compound A-78]	70	70	100	100	100	90	100	90
CCc1ccc(Oc2cnc3ccc(Br)cc3n2)cc1C1=C(O)CCC1=O [Compound A-79]	40	20	90	70	0	0	50	20
CCc1ccc(Oc2ccc(C(F)(F)F)cc2Br)cc1C1=C(O)CCC1=O [Compound A-80]	0	10	80	50	40	50	80	30
CCc1ccc(Oc2ccc([N+](=O)[O-])c(Cl)c2)cc1C1=C(O)C2C(C1=O)[C@H]1CC[C@@H]2CC1 (stereo partly drawn) [Compound A-86]	0	0	20	20	10	10	100	10
CCc1ccc(Oc2ccc(C(F)(F)F)cn2)cc1C1=C(O)C2C(C1=O)[C@H]1CC[C@@H]2CC1 (stereo partly drawn) [Compound A-87]	80	30	100	90	90	100	100	90
CCc1ccc(Oc2ncc(C(F)(F)F)cc2Cl)cc1C1=C(O)C2C(C1=O)[C@H]1CC[C@@H]2CC1 (stereo partly drawn) [Compound A-88]	90	40	100	100	90	100	100	90
CCc1ccc(Oc2ncc(C(F)(F)F)cc2F)cc1C1=C(O)C2C(C1=O)[C@H]1CC[C@@H]2CC1 (stereo partly drawn) [Compound A-89]	50	70	100	100	100	100	100	100
CCc1ccc(Oc2ncc(Cl)cc2Cl)cc1C1=C(O)C2C(C1=O)[C@H]1CC[C@@H]2CC1 (stereo partly drawn) [Compound A-90]	70	70	100	100	90	100	100	100
CCc1ccc(Oc2cnc3ccc(Br)cc3n2)cc1C1=C(O)C2C(C1=O)[C@H]1CC[C@@H]2CC1 (stereo partly drawn) [Compound A-93]	10	0	100	60	60	60	100	50
CCc1ccc(Oc2ccc(C(F)(F)F)cc2[N+](=O)[O-])cc1C1=C(O)C2C(C1=O)[C@H]1CC[C@@H]2CC1 (stereo partly drawn) [Compound A-105]	10	0	60	40	40	40	90	30
CCc1ccc(Oc2nc3ccc(C(F)(F)F)cc3s2)cc1C1=C(O)C2C(C1=O)[C@H]1CC[C@@H]2CC1 (stereo partly drawn) [Compound A-108]	30	10	80	50	90	90	100	70
